Results reported in ChEMBL document CHEMBL3233003, “Chromodomain antagonists that target the polycomb-group methyllysine reader protein chromobox homolog 7 (CBX7)” (J Med Chem, 2014).
The source made the active and inactive calls. No cut-off for these calls is given here. Starred links: 1 amine or outer side, 2 acyl side, 3 side chain; linkers in the order of their positions; H or OH if unused. Non-standard residues stand in square brackets, D forms with d. Residues, ends and D or L forms follow the SMILES beside them. *: point of attachment. Benzoyl(4-CO2Me) = COC(=O)c1ccc(C(=O)*)cc1; Lys(Me3) = C[N+](C)(C)CCCC[C@H](N)C(=O)O; Benzoyl(4-Br) = O=C(c1ccc(Br)cc1)*; Ethylenediamine = C(CN[*:2])N[*:1]; Gly(cPent) = N[C@H](C(=O)O)C1CCCC1; X6 = O=C(O)c1ccc(S(=O)(=O)*)cc1; NHCH(CH2OH)2 = OCC(CO)N*; Bz = O=C(c1ccccc1)*

What was measured:
[1] = molecular target: T1, Chromobox protein homolog 7 (Homo sapiens, UniProt O95931); assay: Binding affinity to CBX7 (unknown origin) by isothermal titration calorimetry assay
T1 sequence (O95931 whole entry): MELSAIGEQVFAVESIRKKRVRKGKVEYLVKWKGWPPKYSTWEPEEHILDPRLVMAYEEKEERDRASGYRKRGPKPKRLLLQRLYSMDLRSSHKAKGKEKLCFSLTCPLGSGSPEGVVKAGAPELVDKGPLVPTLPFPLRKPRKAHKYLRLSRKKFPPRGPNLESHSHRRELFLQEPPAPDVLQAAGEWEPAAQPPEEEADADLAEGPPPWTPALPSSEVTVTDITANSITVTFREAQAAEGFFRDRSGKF

[2] = molecular target: T1, Chromobox protein homolog 7; assay: (§1) Displacement of FITC-labeled H3K27me3 from CBX7 (unknown origin) after 15 mins by fluorescence polarization assay
[3] = molecular target: T2, E3 SUMO-protein ligase CBX4 (Homo sapiens, UniProt O00257); assay: Binding affinity to CBX4 (unknown origin) by isothermal titration calorimetry assay
T2 sequence (O00257 whole entry): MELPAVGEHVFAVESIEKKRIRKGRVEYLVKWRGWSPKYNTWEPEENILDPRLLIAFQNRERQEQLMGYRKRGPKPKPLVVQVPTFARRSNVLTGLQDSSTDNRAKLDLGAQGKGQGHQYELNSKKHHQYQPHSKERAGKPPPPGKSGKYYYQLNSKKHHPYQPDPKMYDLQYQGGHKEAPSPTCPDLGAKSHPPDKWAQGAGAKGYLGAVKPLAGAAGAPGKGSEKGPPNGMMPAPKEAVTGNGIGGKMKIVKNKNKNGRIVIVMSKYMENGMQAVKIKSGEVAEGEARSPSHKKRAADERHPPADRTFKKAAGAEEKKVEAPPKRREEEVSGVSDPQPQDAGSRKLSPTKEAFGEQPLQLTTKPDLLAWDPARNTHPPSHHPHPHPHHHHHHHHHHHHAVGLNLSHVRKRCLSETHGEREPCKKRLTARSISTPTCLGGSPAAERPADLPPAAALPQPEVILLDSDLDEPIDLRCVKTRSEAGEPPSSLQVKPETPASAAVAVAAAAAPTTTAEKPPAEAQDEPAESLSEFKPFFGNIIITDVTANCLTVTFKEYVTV

[4] = molecular target: Chromobox protein homolog 1 (Homo sapiens, UniProt P83916); assay: Binding affinity to CBX1 (unknown origin) by isothermal titration calorimetry assay
[5] = molecular target: T3, Chromobox protein homolog 8 (Homo sapiens, UniProt Q9HC52); assay: Binding affinity to CBX8 (unknown origin) by isothermal titration calorimetry assay
T3 sequence (Q9HC52 whole entry): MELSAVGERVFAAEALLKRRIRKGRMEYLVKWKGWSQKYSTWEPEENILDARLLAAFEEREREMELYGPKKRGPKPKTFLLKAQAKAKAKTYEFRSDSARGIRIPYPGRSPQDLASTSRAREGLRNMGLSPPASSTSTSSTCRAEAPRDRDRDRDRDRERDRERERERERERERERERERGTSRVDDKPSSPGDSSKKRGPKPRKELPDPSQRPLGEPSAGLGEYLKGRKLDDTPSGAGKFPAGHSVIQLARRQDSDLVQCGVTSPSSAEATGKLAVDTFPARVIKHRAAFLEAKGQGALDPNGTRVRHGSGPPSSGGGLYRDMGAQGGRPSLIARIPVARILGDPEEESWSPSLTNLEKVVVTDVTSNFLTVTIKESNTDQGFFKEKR

[6] = molecular target: T4, Chromobox protein homolog 7 (Homo sapiens) (UniProt O95931); assay: as §1
T4 sequence (whole entry): T1 sequence (O95931 whole entry)

Chromobox protein homolog 1, sequence (P83916 whole entry): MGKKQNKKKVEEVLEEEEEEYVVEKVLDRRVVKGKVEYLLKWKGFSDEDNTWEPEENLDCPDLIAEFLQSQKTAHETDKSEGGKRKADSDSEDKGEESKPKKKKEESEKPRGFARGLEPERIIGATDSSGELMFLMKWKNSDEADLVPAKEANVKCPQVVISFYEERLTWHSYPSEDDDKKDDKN

Molecule | Kd [1] | IC50 [2] | Kd [5] | other results
CC(=O)N[C@@H](Cc1ccccc1)C(=O)N[C@@H](C)C(=O)N[C@@H](CC(C)C)C(=O)N[C@@H](CCCC[N+](C)(C)C)C(=O)N[C@@H](CO)C(N)=O | 2 µM | 11 µM | 14.2 µM | Kd [3]: 3.7 µM; Kd [4]: 43 µM
CC(=O)N[C@@H](Cc1ccccc1)C(=O)N[C@@H](C)C(=O)N[C@@H](CC(C)C)C(=O)N[C@@H](CCCC[N+](C)(C)C)C(=O)N[C@H](CO)C(N)=O | 5.4 µM | 9 µM | 15 µM | –
CC(=O)N[C@@H](Cc1ccccc1)C(=O)N[C@@H](C)C(=O)N[C@@H](Cc1ccc(O)cc1)C(=O)N[C@@H](CCCC[N+](C)(C)C)C(=O)N[C@@H](CO)C(N)=O (Ac-FAY[Lys(Me3)]S-NH2) | – | – | 12.3 µM | –
CC(C)C[C@H](NC(=O)[C@H](C)NC(=O)[C@H](Cc1ccccc1)NC(=O)c1ccc(Br)cc1)C(=O)N[C@@H](CCCC[N+](C)(C)C)C(=O)N[C@@H](CO)C(N)=O ({Benzoyl(4-Br)}-FAL[Lys(Me3)]S-NH2) | 0.28 µM | 4.6 µM | 1.5 µM | –
COC(=O)c1ccc(C(=O)N[C@@H](Cc2ccccc2)C(=O)N[C@@H](C)C(=O)N[C@H](C(=O)N[C@@H](CCCC[N+](C)(C)C)C(=O)N[C@@H](CO)C(N)=O)C2CCCC2)cc1 ({Benzoyl(4-CO2Me)}-FA[Gly(cPent)][Lys(Me3)]S-NH2) | 0.2 µM | – | 1.78 µM | –
COC(=O)c1ccc(C(=O)N[C@@H](Cc2ccccc2)C(=O)N[C@@H](C)C(=O)N[C@H](C(=O)N[C@@H](CCCC[N+](C)(C)C)C(=O)NC(CO)CO)C2CCCC2)cc1 ({Benzoyl(4-CO2Me)}-FA[Gly(cPent)][Lys(Me3)]-{NHCH(CH2OH)2}) | 0.2 µM | – | 1.89 µM | Kd [3]: 0.29 µM; Kd [4]: > 500 µM
C[C@H](NC(=O)Cc1ccccc1)C(=O)N[C@H](C(=O)N[C@@H](CCCC[N+](C)(C)C)C(=O)NC(CO)CO)C1CCCC1 | 4.1 µM | – | 15 µM | –
CC(=O)N[C@@H](Cc1ccccc1)C(=O)N[C@@H](C)C(=O)N[C@@H](Cc1ccccc1)C(=O)N[C@@H](CCCC[N+](C)(C)C)C(=O)N[C@@H](CO)C(N)=O (Ac-FAF[Lys(Me3)]S-NH2) | – | 10.3 µM | – | –
CC(C)C[C@H](NC(=O)[C@H](C)NC(=O)[C@H](Cc1ccccc1)NC(=O)c1ccccc1)C(=O)N[C@@H](CCCC[N+](C)(C)C)C(=O)N[C@@H](CO)C(N)=O (Bz-FAL[Lys(Me3)]S-NH2) | – | 8.8 µM | – | –
CC(=O)N[C@@H](Cc1ccccc1)C(=O)N[C@@H](C)C(=O)N[C@@H](CC(C)C)C(=O)N[C@@H](CCCC[N+](C)(C)C)C(=O)NC(CO)CO (Ac-FAL[Lys(Me3)]-{NHCH(CH2OH)2}) | – | 23 µM | – | –
C[C@H](NC(=O)[C@H](Cc1ccccc1)NC(=O)c1ccc(Br)cc1)C(=O)N[C@H](C(=O)N[C@@H](CCCC[N+](C)(C)C)C(=O)NCCN)C1CCCC1 ({Benzoyl(4-Br)}-FA[Gly(cPent)][Lys(Me3)]-Ethylenediamine) | 0.22 µM | – | 0.48 µM | –
CC(=O)N[C@@H](Cc1ccccc1)C(=O)N[C@@H](C)C(=O)N[C@@H](CC(C)C)C(=O)N[C@@H](CCCC[N+](C)(C)C)C(=O)NCCN (Ac-FAL[Lys(Me3)]-Ethylenediamine) | – | 22 µM | – | –
CC(=O)N[C@@H](Cc1ccccc1)C(=O)N[C@@H](C)C(=O)N[C@@H](CC(C)C)C(=O)N[C@@H](CCCC[N+](C)(C)C)C(=O)N[C@@H](CO)C(=O)O | – | 27 µM | – | –
CC(=O)N[C@@H](Cc1ccccc1)C(=O)N[C@@H](CO)C(=O)N[C@@H](CC(C)C)C(=O)N[C@@H](CCCC[N+](C)(C)C)C(=O)N[C@@H](CO)C(N)=O (Ac-FSL[Lys(Me3)]S-NH2) | – | 53 µM | – | –
CC(=O)N[C@@H](Cc1c[nH]c2ccccc12)C(=O)N[C@@H](C)C(=O)N[C@@H](CC(C)C)C(=O)N[C@@H](CCCC[N+](C)(C)C)C(=O)N[C@@H](CO)C(N)=O (Ac-WAL[Lys(Me3)]S-NH2) | – | 7.8 µM | – | –
COC(=O)c1ccc(C(=O)N[C@@H](Cc2ccccc2)C(=O)N[C@@H](C)C(=O)N[C@@H](CC(C)C)C(=O)N[C@@H](CCCC[N+](C)(C)C)C(=O)N[C@@H](CO)C(N)=O)cc1 ({Benzoyl(4-CO2Me)}-FAL[Lys(Me3)]S-NH2) | – | 6.3 µM | – | –
CC(C)C[C@H](NC(=O)[C@H](C)NC(=O)[C@H](Cc1ccccc1)NS(=O)(=O)c1ccc(C(=O)O)cc1)C(=O)N[C@@H](CCCC[N+](C)(C)C)C(=O)N[C@@H](CO)C(N)=O (X6-FAL[Lys(Me3)]S-NH2) | – | 6.7 µM | – | –
CC(=O)N[C@@H](Cc1ccccc1)C(=O)N[C@@H](C)C(=O)N[C@H](C(=O)N[C@@H](CCCC[N+](C)(C)C)C(=O)N[C@@H](CO)C(N)=O)[C@@H](C)O (Ac-FAT[Lys(Me3)]S-NH2) | – | 35 µM | – | –
CC[C@H](NC(=O)[C@H](Cc1ccccc1)NC(C)=O)C(=O)N[C@@H](CC(C)C)C(=O)N[C@@H](CCCC[N+](C)(C)C)C(=O)N[C@@H](CO)C(N)=O | – | 39 µM | – | –
Ac-FALKS-NH2 | – | – | – | inhibition [6]: inactive
